In test [1] the target is T1, HCV NS3/4A protease complex (Hepatitis C virus genotype 1a, UniProt P27958, C1454S/C1711G).
T1 construct: DNA encoding the recombinant HCV NS3/4A protease complex (amino acids 1027 to 1711) for these strains; inferred from pET21b vector and Ni-NTA purification) (C); made in house; host or cells: Escherichia coli BL21 (DE3), pET21b
The test is described as follows: FRET peptide assay to monitor HCV NS3/4A proteolytic activity. Particulars: NS3/4A strain not stated. Format: biochemical. From the text: HCV NS3 protease complexes, derived from the BMS strain, H77 strain or J4L6S strain, were generated, as described below. These purified recombinant proteins were generated for use in a homogeneous assay (see below) to provide an indication of how effective compounds of the present disclosure would be in inhibiting HCV NS3 proteolytic activity.
The H77 and J4L6S strains were used for production of recombinant NS3/4A protease complexes. DNA encoding the recombinant HCV NS3/4A protease complex (amino acids 1027 to 1711) for these strains was manipulated as described by P. Gallinari et al. (see Gallinari P, Paolini C, Brennan D, Nardi C, Steinkuhler C, De Francesco R. Biochemistry. 38(17):5620-32, (1999)). Briefly, a three-lysine solubilizing tail was added at the 3′-end of the NS4A coding region. The cysteine in the P1 position of the NS4A-NS4B cleavage site (amino acid 1711) was changed to a glycine to avoid the proteolytic cleavage of the lysine tag. Furthermore, a cysteine to serine mutation was introduced by PCR at amino acid position 1454 to prevent the autolytic cleavage in the NS3 helicase domain. The variant DNA fragment was cloned in the pET21b bacterial expression vector (Novagen) and the NS3/4A complex was expressed in Escherichia coli strain BL21 (DE3) (Invitrogen) following the protocol described by P. Gallinari et al. (see Gallinari P, Brennan D, Nardi C, Brunetti M, Tomei L, Steinkuhler C, De Francesco R., J Virol. 72(8):6758-69 (1998)) with modifications. Briefly, the NS3/4A protease complex expression was induced with 0.5 millimolar (mM) Isopropyl β-D-1-thiogalactopyranoside (IPTG) for 22 hours (h) at 20° C. A typical fermentation (1 Liter (L)) yielded approximately 10 grams (g) of wet cell paste. The cells were resuspended in lysis buffer (10 mL/g) consisting of 25 mM N-(2-Hydroxyethyl)Piperazine-N′-(2-Ethane Sulfonic acid) (HEPES), pH 7.5, 20% glycerol, 500 mM Sodium Chloride (NaCl), 0.5% Triton X-100, 1 microgram/milliliter ([…]) lysozyme, 5 mM Magnesium Chloride (MgCl2), 1 μg/ml DnaseI, 5 mM […] (βME), Protease inhibitor-Ethylenediamine Tetraacetic acid (EDTA) free (Roche), homogenized and incubated for 20 minutes (min) at 4° C. The homogenate was sonicated and clarified by ultra-centrifugation at 235000 g for 1 hour (h) at 4° C. Imidazole was added to the supernatant to a final concentration of 15 mM and the pH adjusted to 8.0. The crude protein extract was loaded on a Nickel-Nitrilotriacetic acid (Ni-NTA) column pre-equilibrated with buffer B (25 mM HEPES, pH 8.0, 20% glycerol, 500 mM NaCl, 0.5% Triton X-100, 15 mM imidazole, 5 mM βME). The sample was loaded at a flow rate of 1 mL/min. The column was washed with 15 column volumes of buffer C (same as buffer B except with 0.2% Triton X-100). The protein was eluted with 5 column volumes of buffer D (same as buffer C except with 200 mM Imidazole).
NS3/4A protease complex-containing fractions were pooled and loaded on a desalting column Superdex-S200 pre-equilibrated with buffer D (25 mM HEPES, pH 7.5, 20% glycerol, 300 mM NaCl, 0.2% Triton X-100, 10 mM (βME). Sample was loaded at a flow rate of 1 mL/min. NS3/4A protease complex-containing fractions were pooled and concentrated to approximately 0.5 mg/ml. The purity of the NS3/4A protease complexes, derived from the BMS, H77 and J4L6S strains, were judged to be greater than 90% by SDS-PAGE and mass spectrometry analyses. The enzyme was stored at −80° C., thawed on ice and diluted prior to use in assay buffer.
The purpose of this in vitro assay was to measure the inhibition of HCV NS3 protease complexes, derived from the BMS strain, H77 strain or J4L6S strain, as described above, by compounds of the present disclosure. This assay provides an indication of how effective compounds of the present disclosure would be in inhibiting HCV NS3 proteolytic activity.
In order to monitor HCV NS3/4A protease activity, an NS3/4A peptide substrate was used. […]

For test [2], the system named is HCV replicon in HUH-7 cells. The test is described as follows: HCV replicon assay (FRET, confirmed by luciferase reporter). It is filed as cell-based, Hepatitis C virus (strain 1b). Conditions: Hepatitis C virus, 96 h, HUH-7 replicon cells, 4 days. The text has this:
An HCV replicon whole cell system was established as described by Lohmann V, Korner F, Koch J, Herian U, Theilmann L, Bartenschlager R., Science 285(5424):110-3 (1999). This system enabled us to evaluate the effects of our HCV Protease compounds on HCV RNA replication. Briefly, using the HCV strain 1b sequence described in the Lohmann paper (Assession number: AJ238799), an HCV cDNA was synthesized by Operon Technologies, Inc. (Alameda, Calif.), and the full-length replicon was then assembled in plasmid pGem9zf(+) (Promega, Madison, Wis.) using standard molecular biology techniques. The replicon consists of (i) the HCV 5′ UTR fused to the first 12 amino acids of the capsid protein, (ii) the neomycin phosphotransferase gene (neo), (iii) the IRES from encephalomyocarditis virus (EMCV), and (iv) HCV NS3 to NS5B genes and the HCV 3′ UTR. Plasmid DNAs were linearized with Seal and RNA transcripts were synthesized in vitro using the T7 MegaScript transcription kit (Ambion, Austin, Tex.) according to manufacturer's directions. In vitro transcripts of the cDNA were transfected into the human hepatoma cell line, HUH-7. […] Resulting cell lines were characterized for positive and negative strand RNA production and protein production over time.
The HCV replicon FRET assay was developed to monitor the inhibitory effects of compounds described in the disclosure on HCV viral replication. HUH-7 cells, constitutively expressing the HCV replicon, were grown in Dulbecco's Modified Eagle Media (DMEM) (Gibco-BRL) containing 10% Fetal calf serum (FCS) (Sigma) and 1 mg/ml G418 (Gibco-BRL). Cells were seeded the night before (1.5×10^4 cells/well) in 96-well tissue-culture sterile plates. Compound and no compound controls were prepared in DMEM containing 4% FCS, 1:100 Penicillin/Streptomysin (Gibco-BRL), 1:100 L-glutamine and 5% DMSO in the dilution plate (0.5% DMSO final concentration in the assay). Compound/DMSO mixes were added to the cells and incubated for 4 days at 37° C. After 4 days, cells were first assessed for cytotoxicity using alamar Blue (Trek Diagnostic Systems) for a CC50 reading. The toxicity of compound (CC50) was determined by adding 1/10th volume of alamar Blue to the media incubating the cells. After 4 h, the fluorescence signal from each well was read, with an excitation wavelength at 530 nm and an emission wavelength of 580 nm, using the Cytofluor Series 4000 (Perspective Biosystems). Plates were then rinsed thoroughly with Phosphate-Buffered Saline (PBS) (3 times 150 μl).
As a secondary assay, EC50 determinations from the replicon FRET assay were confirmed in a replicon luciferase reporter assay. Utilization of a replicon luciferase reporter assay was first described by Krieger et al (Krieger N, Lohmann V, and Bartenschlager R, J. Viral. 75(10):4614-4624 (2001)). The replicon construct described for our FRET assay was modified by inserting cDNA encoding a humanized form of the Renilla luciferase gene and a linker sequence fused directly to the 3′-end of the luciferase gene. This insert was introduced into the replicon construct using an Asc1 restriction site located in core, directly upstream of the neomycin marker gene. The adaptive mutation at position 1179 (serine to isoleucine) was also introduced (Blight K J, Kolykhalov, A A, Rice, C M, Science 290(5498):1972-1974). A stable cell line constitutively expressing this HCV replicon construct was generated as described above. The luciferase reporter assay was set up as described for the HCV replicon FRET assay with the following modifications. Following 4 days in a 37° C./5% CO2 incubator, cells were analyzed for Renilla Luciferase activity using the Promega Dual-Glo Luciferase Assay System. Media (100 μl) was removed from each well containing cells. To the remaining 50 μl of media, 50 μl of Dual-Glo Luciferase Reagent was added, and plates rocked for 10 min to 2 h at room temperature. […]
(Replicon systems follow genome replication, usually without infectious particles.)

T1 sequence (P27958 1027-1711 C1454S/C1711G, one chain of several): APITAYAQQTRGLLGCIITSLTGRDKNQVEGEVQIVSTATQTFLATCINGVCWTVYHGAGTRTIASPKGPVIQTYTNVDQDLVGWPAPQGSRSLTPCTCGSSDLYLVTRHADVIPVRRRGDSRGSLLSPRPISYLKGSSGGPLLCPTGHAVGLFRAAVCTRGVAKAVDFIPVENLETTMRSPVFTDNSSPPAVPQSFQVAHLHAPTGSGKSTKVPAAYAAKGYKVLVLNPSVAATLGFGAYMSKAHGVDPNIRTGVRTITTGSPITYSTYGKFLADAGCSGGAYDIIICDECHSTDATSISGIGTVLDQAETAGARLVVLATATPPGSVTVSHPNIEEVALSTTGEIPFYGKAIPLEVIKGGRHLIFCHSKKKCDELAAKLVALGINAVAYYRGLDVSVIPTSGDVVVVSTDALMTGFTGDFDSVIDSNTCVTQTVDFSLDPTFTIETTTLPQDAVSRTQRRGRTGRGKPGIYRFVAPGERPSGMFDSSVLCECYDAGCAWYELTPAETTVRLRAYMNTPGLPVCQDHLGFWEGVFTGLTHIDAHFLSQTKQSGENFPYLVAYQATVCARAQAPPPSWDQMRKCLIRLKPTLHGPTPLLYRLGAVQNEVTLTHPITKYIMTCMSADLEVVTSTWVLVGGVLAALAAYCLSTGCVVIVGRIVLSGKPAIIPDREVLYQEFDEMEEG

The term IC50 denotes the midpoint of a concentration-inhibition curve. Compound `CO[C@@]12C[C@@H](C(=O)N[C@]3(C(=O)NS(=O)(=O)C4CC4)C[C@H]3C3CC3)N(C1)C(=O)[C@H](C(C)(C)C)NC(=O)OCCCCCc1ccccc1-c1ccc2cc1` [Example 14] registered a half-maximal inhibitory concentration (IC50) in test [1] (class symbols) of 8 to 11 nM.
On to `CO[C@@]12C[C@@H](C(=O)N[C@]3(C(=O)NS(=O)(=O)C4CC4)C[C@H]3C3CC3)N(C1)C(=O)[C@H](C(C)(C)C)NC(=O)OCCCCCCc1ccc(Cl)cc1-c1ccc2cc1` [Example 20], for which the IC50 in test [1] (class symbols) was in the range of 1 to 3 nM.
What is called EC50 is the concentration giving half of the maximal effect. `CO[C@@]12C[C@@H](C(=O)N[C@]3(C(=O)NS(=O)(=O)C4CC4)C[C@H]3C3CC3)N(C1)C(=O)[C@H](C(C)(C)C)NC(=O)OCCCCCCc1ccccc1-c1ccc2cc1` [Example 2] gave an EC50 in test [2] (numeric values) of 16 nM. Further, the IC50 in test [1] (numeric values) was 1.5 nM.
The compound `CO[C@@]12C[C@@H](C(=O)N[C@]3(C(=O)NS(=O)(=O)C4CC4)C[C@H]3C3CC3)N(C1)C(=O)[C@H](C(C)(C)C)NC(=O)OCCCCCCCc1ccccc1-c1ccc2cc1` [Example 18] gave an IC50 in test [1] (class symbols) of 1 to 3 nM.
Consider `C=C[C@@H]1C[C@]1(NC(=O)[C@@H]1C[C@]2(OC)CN1C(=O)[C@H](C(C)(C)C)NC(=O)OCCC(C)(C)CCCc1cc(OC)ccc1-c1ccc2cc1)C(=O)NS(=O)(=O)C1CC1` [Example 10], for which the concentration for a half-maximal effect (EC50) in test [2] (class symbols) was in the range of 5.5 to 10 nM. Besides, the IC50 in test [1] (class symbols) was 1 to 3 nM.
`COc1ccc2c(c1)CCCC(C)(C)CCOC(=O)N[C@@H](C(C)(C)C)C(=O)N1C[C@@](OC)(C[C@H]1C(=O)N[C@]1(C(=O)NS(=O)(=O)C3CC3)C[C@H]1C1CC1)c1ccc-2cc1` [Example 11] yielded an EC50 in test [2] (class symbols) of 5.5 to 10 nM. The IC50 in test [1] (class symbols) lay within 1 to 3 nM.
In test [1] (class symbols), `CO[C@@]12C[C@@H](C(=O)N[C@]3(C(=O)NS(=O)(=O)C4CC4)C[C@H]3C3CC3)N(C1)C(=O)[C@H](C(C)(C)C)NC(=O)OCC(C)(C)CCCCc1cc(N(C)C)ccc1-c1ccc2cc1` [Example 22] had an IC50 of 1 to 3 nM.
The same measure, in the same setting: the same measure for `C=C[C@@H]1C[C@]1(NC(=O)[C@@H]1C[C@]2(OC)CN1C(=O)[C@H](C(C)(C)C)NC(=O)OCCCCCCCc1ccccc1-c1ccc2cc1)C(=O)NS(=O)(=O)C1CC1` [Example 19]: 1 to 3 nM.
In test [2] (class symbols), `CO[C@@]12C[C@@H](C(=O)N[C@]3(C(=O)NS(=O)(=O)C4CC4)C[C@H]3C(F)F)N(C1)C(=O)[C@H](C(C)(C)C)NC(=O)OCC(C)(C)CCCCc1ccccc1-c1ccc2cc1` [Example 7] gave an EC50 of 5.5 to 10 nM. The 50% inhibitory concentration (IC50) in test [1] (class symbols) lay in the range of 1 to 3 nM.
`C=C[C@@H]1C[C@]1(NC(=O)[C@@H]1C[C@]2(OC)CN1C(=O)[C@H](C(C)(C)C)NC(=O)OCCC(C)(C)CCCc1ccccc1-c1ccc2cc1)C(=O)NS(=O)(=O)C1CC1` [Example 4]: the EC50 in test [2] (class symbols) was in the range of 11 to 20 nM. The compound further registered an IC50 in test [1] (class symbols) of 1 to 3 nM.
In test [2] (numeric values), `C=C[C@@H]1C[C@]1(NC(=O)[C@@H]1C[C@]2(OC)CN1C(=O)[C@H](C(C)(C)C)NC(=O)OCCCCCCc1ccccc1-c1ccc2cc1)C(=O)NS(=O)(=O)C1CC1` [Example 1] had an EC50 of 5 nM. Moreover, the IC50 in test [1] (numeric values) came to 1 nM.
On to `CO[C@@]12C[C@@H](C(=O)N[C@]3(C(=O)NS(=O)(=O)C4CC4)C[C@H]3C3CC3)N(C1)C(=O)[C@H](C(C)(C)C)NC(=O)OCCCCc1cccc(c1)-c1cccc2c1` [Example 21], for which, in test [1] (class symbols), the IC50 is 1 to 3 nM.
`C=C[C@@H]1C[C@]1(NC(=O)[C@@H]1C[C@]2(OC)CN1C(=O)[C@H](C(C)(C)C)NC(=O)OCC(C)(C)CCCCc1cc(OC)ccc1-c1ccc2cc1)C(=O)NS(=O)(=O)C1CC1` [Example 12] registered an EC50 in test [2] (class symbols) of 5.5 to 10 nM. This compound gave an IC50 in test [1] (class symbols) of 1 to 3 nM.
Turning to `CO[C@@]12C[C@@H](C(=O)N[C@]3(C(=O)NS(=O)(=O)C4CC4)C[C@H]3C3CC3)N(C1)C(=O)[C@H](C(C)(C)C)NC(=O)OCC(C)(C)CCCc1ccccc1-c1ccc2cc1` [Example 16], the half-inhibitory concentration (IC50) in test [1] (class symbols) lay within 4 to 7 nM.
As for `C=C[C@@H]1C[C@]1(NC(=O)[C@@H]1C[C@]2(OC)CN1C(=O)[C@H](C(C)(C)C)NC(=O)OCC(C)(C)CCCCc1ccccc1-c1ccc2cc1)C(=O)NS(=O)(=O)C1CC1` [Example 6], the EC50 in test [2] (class symbols) fell in the range of 5.5 to 10 nM. Also, the IC50 in test [1] (class symbols) was 1 to 3 nM.
Consider `C=C[C@@H]1C[C@]1(NC(=O)[C@@H]1C[C@]2(OC)CN1C(=O)[C@H](C(C)(C)C)NC(=O)OCCCCCc1ccccc1-c1ccc2cc1)C(=O)NS(=O)(=O)C1CC1` [Example 15], for which, in test [1] (class symbols), the half-maximal inhibitory concentration (IC50) is 4 to 7 nM.
`COc1ccc2c(c1)CCCCC(C)(C)COC(=O)N[C@@H](C(C)(C)C)C(=O)N1C[C@@](OC)(C[C@H]1C(=O)N[C@]1(C(=O)NS(=O)(=O)C3CC3)C[C@H]1C1CC1)c1ccc-2cc1` [Example 13]: the IC50 in test [1] (class symbols) fell in the range of 4 to 7 nM.

Values taken from US8563505B2, “Hepatitis C virus inhibitors” (priority 2008, dated 2013).
